Measurements as given in patent publication US11420962B2, “Indene derivatives useful in treating pain and inflammation” (TARO PHARMACEUTICALS INC., priority 2018, dated 2022).

Tests used:
Mice (male, C57Bl/6) = experiment: Formalin pain assay in mice; format: in vivo; conditions: Table 7; formalin 2.5%, left plantar
Protocol: Mice (male, C57BL/6) were placed singly in a Perspex chamber for approximately 30 min on three successive days to acclimate and thereby reduce stress-induced behaviors. On the fourth day, the experimental animals received a 25 μl injection of 2.5% formalin beneath the left plantar skin using a 29-gauge syringe. […] The total time spent on flinches/licking/biting of the hind paw was recorded by visual observation for every 5 min period/interval for total observation duration of 60 min in two phases, the early phase (0-5 min) and the late phase (15-40 min). Observers were blinded to the treatment group allocation.
For test compounds, the % protection from 0-60 min was used to assess activity. Scoring for the test compounds was as follows: “A” represents a % protection of 81 to 100%, “B” represents a % protection of 61 to 80%, “C” represents a % protection of 31 to 60% and “D” represents a % protection of 0 to 30%.

Rat DRG = experiment: Rat dorsal root ganglion excitability response (EFS, Ca2+ transients); format: cell-based; conditions: Rattus norvegicus; Table 3; electrical field stimulation, Ca5 indicator; read-out: Scoring (EC50, Rat DRG excitability)
Protocol: Dorsal root ganglions (DRGs) were dissected from adult rats. The tissue was processed, and cells were seeded into call culture plates (48 center wells of one quadrant in 384-well plates) and cultured for 2 days prior to Electrical field stimulation (EFS). To visualize the neuronal excitability response, intracellular Ca^+2 transients were monitored using the Ca^+2 indicator, Ca5. Ca5 was added to the cultures 1 h prior to EFS. Representative test compounds of the invention (i.e., test compounds) and reference compound, tetracaine, were added in concentration-response format encompassing six concentrations, performed in duplicate. The highest concentration tested was typically 30 μM with 1 in 3 dilutions generating the subsequent concentrations.
Effects on DRG excitability by the test compounds and standard were evaluated using four EFS protocols as disclosed in Table 2.
Experimental results were performed using two separate sets of plates using separate test compound and standard dilutions, to provide n=2. In the first set of experiments, compounds were added 24 h prior to EFS to increase the possibility to also detect more long-term compound effects. In the second set of experiments the compounds were added directly prior to EFS. Excitability response to EFS was analyzed as the average fluorescence ratio (peak/baseline) change per well. All plates were evaluated using high content imaging equipment post-EFS, imaging the Ca5 background staining to detect any possible compound-related toxic effects.
Average response by the standard compound, tetracaine, was 4.05 μM.

[1] = Metabolism by human liver microsomes; format: in vitro ADME; conditions: Table 8; 10 µM, in the presence of NADPH, 1 mg/mL protein
Protocol: Representative compounds of the invention (i.e., test compounds) and the positive control, 7-ethoxycoumarin, were prepared as stock solutions at 10 mM in DMSO and eventually diluted to 10 μM in the test plate, with an appropriate amount of acetonitrle and tris HCl buffer. Final DMSO and acetonitrile concentrations were […] and 0.5% respectively. NADPH was prepared in tris HCl buffer to a stock of 10 mM. A frozen aliquot of live microsomes was retrieved from the freezer (−80° C.) and thawed by placing the tube on wet ice. After thawing, the tubes were gently mixed and the required amount, transferred to tris HCl buffer. Test compounds or positive control were pre-incubated, separately, for 10 minutes, with liver microsomes (1 mg/mL protein), at 37° C., in 100 mM Tris HCl at pH 7.5. After preincubation the reaction was started by adding 1 mM NADPH (pre-equilibrated to […]) and the reaction allowed to proceed for 60 minutes. At 60 minutes, a 50 μL aliquot was removed and quenched with 200 uL of acetonitrile containing a mixture of internal standards (Tolbutamide (500 ng/mL) and Telmistartan (500 ng/mL)) and vortexed then centrifuged at 4000 rmp for 10 minutes (Eppendorf 5810R). The supernatant was transferred to a 96 well plate for LC-MS/MS analysis.
An LC-MS/MS method was devised for the test compounds and the control, using a AB Sciex API 4000 system coupled to a NEXAR™ UHPLC (Shimadzu) system. Analytes were separated on a Phenomenex Kinetex C18 column (50×2.1 mm, 5 μm) using a gradient that was appropriate for each compound, at a flow rate of 1 ml/minute, utilizing a mobile phase of 0.1% formic acid in MILLI-Q™ water (A) and 0.1% formic acid in acetonitrile (B). The MS instrument was operated in positive mode (ESI+)/negative (ESI−). The multiple reaction monitoring (MRM) transition for test and control compounds was used for the LC-MS/MS analysis. MRM transitions for control compound 7-ethoxycoumarinm were Quadropole 1: 191.0, Quadropole 3: 163.0, dwell time: 75 msec, using curtain gas settings of 5 V, ion-spray voltage of 5500 V, temperature of 50° C. and gas settings for nebulizer and auxiliary set to 30 and 40 psi, respectively. The interface heater was kept on. Entrance potential and collision cell exit potential were varied to tune for a specific compound.
Using a suitable LC-MS/MS method, the percentage of drug remaining at 60 minutes ([…]) was assessed by comparing the average analyte to internal standard area ratio at 60 minutes to the average analyte to internal standard area ratio at 0 time control, as a percentage, from a 5 to 10 μL sample injection.
According to the above assay, the representative compounds listed in Table 8 below were active in the Human liver microsome assay at […] and the % of drug remaining after 60 minutes (PDR60), in the presence of NADPH, was assessed by LC-MS/MS. Average PDR60 for the standard compound, 7-ethoxycoumarin was <=65% in the presence of NADPH. Scoring for the test compounds, in the presence of NADPH, was as follows: “A” represents a PDR^60 of 81 to 100%, “B” represents a PDR^60 of 61 to 80%, “C” represents a PDR^60 of 31 to 60% and “D” represents a PDR^60 of 0 to 30%.

T cells = experiment: T cell proliferation (anti-CD3/anti-CD28 dynabeads, CCK-8); format: cell-based, mice; conditions: Table 4, mouse T cells, 72 hours after dynabeads, read-out: Scoring (IC50, cell proliferation)
Protocol: Spleens were obtained from six male, CD-1 outbred mice, approximately 8 weeks old. Cells were harvested under sterile conditions by forcing each spleen though a cell filter (pore size 100 μm diameter). A homogenous cell suspension was obtained by washing the cells in fresh medium and passing cells through a smaller cell filter (pore size 70 μm).
Untouched T cells were isolated using the Pan T cell isolation kit (Miltenyi Biotech). Briefly, cells were counted and incubated with the required volume of antibody cocktail for 5 minutes at 4° C. before addition of microbeads and incubation for 10 minutes at 4° C. Labeled cells were retained in a magnetic column while unlabeled cells (T cells) passed through the column and were retained for use in the assay.
Cell viability was assessed by Trypan Blue exclusion and found to be >99% prior to transfer to plates. Isolated T cells were seeded out in 96 well plates at a density of 50,000 cells per well and allowed to incubate for 60 minutes in a humidified cell culture (37° C., 5% CO2) incubator prior to compound treatment. The media used for this assay (TexMACS, Miltenyi Biotech) was previously optimized for proliferation of T cells in serum free conditions.
Representative compounds of the invention (i.e., test compounds) were prepared as 30 mM stocks in 100% DMSO. Test compounds were initially diluted in media to yield 3 mM stocks before an additional 1:10 dilution in media was performed to yield working stocks of 300 μM (1% DMSO). Subsequent dilutions were performed in media (supplemented with 1% DMSO). When added to the assay plates (1:10 dilution), these yielded final concentrations in the assay plates of in 0.1% DMSO. The reference compound, Cyclosporin A, was prepared in an identical manner as above.
Unstimulated and Stimulated Control wells received an identical volume of TexMACS media/1% DMSO at this time, resulting in a final concentration of 0.1% DMSO across the plate. Mouse anti-CD3/anti-CD28 dynabeads were prepared (following the manufacturers' instructions) in TexMACS media and added to appropriate wells to achieve a final concentration of 1 bead per cell. Unstimulated Control wells then received an identical volume of TexMACS. Plates were centrifuged 72 hours after addition of dynabeads, (300×g for 3 minutes) to pellet the cells and 60% of the supernatant was removed to a fresh plate for analysis by ELISA. After removal of 60% of the supernatant for subsequent ELISA, cell proliferation was assessed using the CCK-8 assay.
Average response by the standard compound, cyclosporin A, was 1 uM.

Row | SMILES | Scoring (% protection from 0-60 min) (Mice (male, C57Bl/6)) | EC50 (Rat DRG) [µM] | Scoring (% of drug remaining after 60 minutes, PDR60) [1] | IC50 (T cells) [µM]
1 | C=C1CC[C@H]2[C@H](CN)[C@@H]([C@@]3(C)Cc4conc4C[C@@H]3CO)CC[C@]12C [Ig-1, ((5R,6S)-5-((3aS,4R,5S,7aS)-4-(aminomethyl)-7a-methyl-1-methyleneoctahydro-1H-inden-5-yl)-5-methyl-4,5,6,7-tetrahydrobenzo[c]isoxazol-6-yl)methanol] | C (a % protection of 31 to 60%) | 6 to 15 | A (a PDR^60 of 81 to 100%) | 
2 | CC(C)CCC[C@@H](C)[C@H]1CC[C@H]2[C@H](CNCc3ccc4c(c3)OC(F)(F)O4)[C@@H]([C@@]3(C)Cc4cn[nH]c4C[C@@H]3CO)CC[C@]12C [Ia-7, ((5R,6S)-5-((1R,3aS,4S,5S,7aR)-4-((((2,2-difluorobenzo[d][1,3]dioxol-5-yl)methyl)amino)methyl)-7a-methyl-1-((R)-6-methylheptan-2-yl)octahydro-1H-inden-5-yl)-5-methyl-4,5,6,7-tetrahydro-1H-indazol-6-yl)methanol] |  |  |  | < 2
3 | C[C@H]1CC[C@H]2[C@H](CN)[C@@H]([C@@]3(C)Cc4cn[nH]c4C[C@@H]3CO)CC[C@]12C [Ia-34, ((5R,6S)-5-((1S,3aS,4S,5S,7aR)-4-(aminomethyl)-1,7a-dimethyloctahydro-1H-inden-5-yl)-5-methyl-4,5,6,7-tetrahydro-1H-indazol-6-yl)methanol] | C (a % protection of 31 to 60%) | 6 to 15 | B (a PDR^60 of 61 to 80%) | 
4 | CC[C@H]1CC[C@H]2[C@H](CN)[C@@H]([C@@]3(C)Cc4cn[nH]c4C[C@@H]3CO)CC[C@]12C [Ia-29, ((5R,6S)-5-((1S,3aS,4S,5S,7aR)-4-(aminomethyl)-1-ethyl-7a-methyloctahydro-1H-inden-5-yl)-5-methyl-4,5,6,7-tetrahydro-1H-indazol-6-yl)methanol] | D (a % protection of 0 to 30%) | 6 to 15 | C (a PDR^60 of 31 to 60%) | 
5 | C=C1[C@@H](O)C[C@H]2[C@H](CO)[C@@H]([C@@]3(C)Cc4cn[nH]c4C[C@@H]3CO)CC[C@]12C [Ia-66, (2S,3aS,4R,5S,7aS)-4-(hydroxymethyl)-5-((5R,6S)-6-(hydroxymethyl)-5-methyl-4,5,6,7-tetrahydro-1H-indazol-5-yl)-7a-methyl-1-methyleneoctahydro-1H-inden-2-ol] | D (a % protection of 0 to 30%) | > 15 | A (a PDR^60 of 81 to 100%) | 
6 | C[C@@]12CCC[C@H]1[C@H](CN)[C@@H]([C@@]1(C)Cc3cn[nH]c3C[C@@H]1CO)CC2 [Ia-33, ((5R,6S)-5-((3aS,4S,5S,7aS)-4-(aminomethyl)-7a-methyloctahydro-1H-inden-5-yl)-5-methyl-4,5,6,7-tetrahydro-1H-indazol-6-yl)methanol] | C (a % protection of 31 to 60%) | 6 to 15 | B (a PDR^60 of 61 to 80%) | 
7 | C=C1CC[C@H]2[C@H](CN)[C@@H]([C@@]3(C)Cc4cnn(-c5ccccc5)c4C[C@@H]3CO)CC[C@]12C [Ia-8, ((5R,6S)-5-((3aS,4R,5S,7aS)-4-(aminomethyl)-7a-methyl-1-methyleneoctahydro-1H-inden-5-yl)-5-methyl-1-phenyl-4,5,6,7-tetrahydro-1H-indazol-6-yl)methanol] | D (a % protection of 0 to 30%) | 2 to 6 | D (a PDR^60 of 0 to 30%) | 
8 | C[C@@]12CCC[C@H]1[C@H](CO)[C@@H]([C@@]1(C)Cc3cn[nH]c3C[C@@H]1CO)CC2 [Ia-27, ((3aS,4S,5S,7aS)-5-((5R,6S)-6-(hydroxymethyl)-5-methyl-4,5,6,7-tetrahydro-1H-indazol-5-yl)-7a-methyloctahydro-1H-inden-4-yl)methanol] | D (a % protection of 0 to 30%) | 6 to 15 |  | 
9 | CC1(C)CCC2=C1CC[C@H]([C@@]1(C)Cc3cn[nH]c3C[C@@H]1CO)[C@H]2CN [Ia-2, ((5R,6S)-5-((4R,5S)-4-(aminomethyl)-1,1-dimethyl-2,3,4,5,6,7-hexahydro-1H-inden-5-yl)-5-methyl-4,5,6,7-tetrahydro-1H-indazol-6-yl)methanol] |  | > 15 | B (a PDR^60 of 61 to 80%) | 
